Source: patent US20220193209A1, “COMPOSITIONS AND METHODS FOR REACTIVATING LATENT IMMUNODEFICIENCY VIRUS AND/OR TREATING IMMUNODEFICIENCY VIRUS INFECTION” (The J. David Gladstone institutes, a testamentary trust …, priority 2019, published 2022)

Key:
ATF4 = assay: Western blot of ATF4 protein in CD4+ T cells; assay type: cell-based, human; details: multiple donors
Experimental: Cells were lysed in radioimmunoprecipitation assay buffer (50 mM Tris-HCl, pH 8, 150 mM NaCl, 1% NP-40, 0.5% sodium deoxycholate, and 0.1% SDS, supplemented with protease inhibitor cocktail; Sigma-Aldrich) for 30 min at 4° C. Samples were resuspended in Laemmli buffer for SDS-PAGE. For chemiluminescent detection, enhanced luminol-based chemiluminescent substrate (ECL) and ECL Hyperfilm (Amersham) were used.
The RNA-Seq results were validated by measuring read counts of the selected genes representative of different pathways (FIG. 8, Panel D) as well as by Real-Time Quantitative PCR (RT-qPCR) (FIG. 7, Panel C). […] Upstream regulator analysis identified TRIB3 and ATF4 as the top regulators of AS1842856-induced gene changes (FIG. 7, Panel D).
FIG. 7, Panels A-E, depict marked upregulation of the regulator ATF4 in response to FOXO1 inhibition in primary CD4^+ T cells. FIG. 7, Panel A depicts a volcano plot from the RNA-Seq data comparing CD4^+ T cells treated with 1000 nM AS1842856 versus DMSO control for 48 h. […] FIG. 7, Panel D, depicts analysis of the five top upstream regulators and table with their activation z-scores according to the RNA-Seq data. FIG. 7, Panel E depicts a representative blot of protein expression of dysregulated genes of interest (left) and densitometry analysis (right) was performed from three individual donors.

FOXO3 = target: T1, FOXO3 (Homo sapiens, UniProt O43524); assay: Cellular Thermal Shift Assay (CETSA) in K562 cells, FOXO3; assay type: binding; details: 1 μM
T1 construct: performed against the FOXO isoforms expressed in K562 cells; endogenous in cells; host or cells: K562
Experimental: K562 cells (ATCC) were maintained in appropriate volume of RPMI medium supplemented with 10% fetal bovine serum (Serum Plus—II, Sigma MO, USA), 100 units/mL penicillin and 100 […] (Corning, VA, USA). Short-term passages (<15) were used for all experiments. For CETSA, K562 cell were freshly seeded the day before the experiment. The day of experiment, equal numbers of cells were counted by Moxi Mini automated cell counter (Orflo) and 0.6×10^6 cells per data point were seeded in T-25 cell culture flasks (VWR, PA, USA) in appropriate volume of culture medium. Cells were exposed to […] AS1842856 or equal volume DMSO for 3 hours in an incubator with 5% CO2 and 37° C. […] The supernatants were transferred to new microcentrifuge tubes and analyzed by SDS-PAGE followed by immunoblotting analysis. […] Immunoblotting results were subjected to densitometric analysis (Image J) and melting temperatures of FOXO1, FOXO3 and FOXO4 were determined by Prism 7 (GraphPad) using nonlinear least-squares regression fit to Y=100/(1+10^(Log IC50−X)*H), where H=Hill slope (variable). The viability of the cells was assessed in triplicate by trypan blue exclusion. […]
Briefly, K562 cells were treated with increasing concentrations of the FOXO1 inhibitor AS1842856 just after HIVGKO infection. After 3-4 days, the percentage of latent cells and productive cells were quantified by FACS. […]

T1 sequence (O43524 whole entry, canonical isoform): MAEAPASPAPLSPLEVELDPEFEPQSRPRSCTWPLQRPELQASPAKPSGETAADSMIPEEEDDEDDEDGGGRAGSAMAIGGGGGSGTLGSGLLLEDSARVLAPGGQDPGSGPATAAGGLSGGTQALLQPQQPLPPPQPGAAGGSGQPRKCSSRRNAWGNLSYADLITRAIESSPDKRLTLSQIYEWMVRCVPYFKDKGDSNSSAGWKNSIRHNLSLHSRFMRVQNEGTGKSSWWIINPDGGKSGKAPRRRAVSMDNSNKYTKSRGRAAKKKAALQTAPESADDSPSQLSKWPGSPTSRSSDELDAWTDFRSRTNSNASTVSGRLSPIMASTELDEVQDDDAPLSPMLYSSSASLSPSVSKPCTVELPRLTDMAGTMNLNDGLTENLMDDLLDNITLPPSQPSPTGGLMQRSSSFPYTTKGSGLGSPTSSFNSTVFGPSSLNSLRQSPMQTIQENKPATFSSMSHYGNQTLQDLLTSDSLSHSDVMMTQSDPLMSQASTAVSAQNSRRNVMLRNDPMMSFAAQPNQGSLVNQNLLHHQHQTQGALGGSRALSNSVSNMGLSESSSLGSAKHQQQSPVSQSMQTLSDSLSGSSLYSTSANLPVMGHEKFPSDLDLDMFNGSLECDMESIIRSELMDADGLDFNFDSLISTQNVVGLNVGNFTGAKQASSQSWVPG

CCn1cc(C(=O)O)c(=O)c2c(N)c(F)c(NC3CCCCC3)cc21 [AS1842856, 5-amino-7-(cyclohexylamino)-1-ethyl-6-fluoro-4-oxo-1,4-dihydro-quinoline-3-carboxylic acid]
ATF4 protein levels (ATF4): increased expression
change in FOXO3 melting curve (FOXO3): no changes
